The NIST ThermoML archive (doi:10.1021/je034102r)

Assay: molar heat capacity at constant pressure
Conditions: 101.33 kPa, Liquid, heat bridge-scanning calorimeter

CCCCn1cc[n+](C)c1.F[P-](F)(F)(F)(F)F [1-butyl-3-methylimidazolium hexafluorophosphate]
Conditions | molar heat capacity at constant pressure [J/K/mol]
408.32 K | 474.58
408.61 K | 473.73
408.74 K | 473.45
408.88 K | 473.45
409.01 K | 473.45
409.14 K | 473.73
409.27 K | 474.02
409.4 K | 474.02
409.53 K | 473.73
409.67 K | 473.73
409.8 K | 474.3
409.93 K | 474.58
410.22 K | 475.15
410.35 K | 474.58
410.48 K | 474.3
410.61 K | 474.3
410.74 K | 474.58
410.88 K | 474.3
411.01 K | 474.3
411.14 K | 474.02
411.27 K | 473.73
411.58 K | 475.72
411.71 K | 475.72
411.84 K | 476.01
411.97 K | 476.01
412.11 K | 475.72
412.24 K | 475.15
412.37 K | 474.58
412.5 K | 474.87
412.63 K | 474.58
412.77 K | 475.15
412.9 K | 475.15
413.18 K | 474.58
413.31 K | 474.58
413.45 K | 474.3
413.58 K | 474.3
413.71 K | 474.3
413.84 K | 474.3
413.97 K | 474.02
414.11 K | 474.02
414.24 K | 474.3
414.53 K | 474.58
414.67 K | 475.44
414.8 K | 476.01
414.93 K | 476.29
415.07 K | 476.29
415.2 K | 476.57
415.33 K | 476.01
415.47 K | 476.01
415.6 K | 475.72
415.73 K | 475.44
415.87 K | 475.44
416.15 K | 475.44
416.29 K | 475.44
416.42 K | 475.15
416.55 K | 474.87
416.69 K | 475.15
416.82 K | 475.15
416.95 K | 475.72
417.08 K | 476.01
417.22 K | 477.43
417.52 K | 476.57
417.65 K | 476.86
417.8 K | 476.57
417.93 K | 476.29
418.06 K | 476.29
418.2 K | 475.72
418.33 K | 475.72
418.46 K | 475.72
418.6 K | 475.44
418.73 K | 476.01
418.86 K | 477.14
419.15 K | 478.56
419.29 K | 477.71
419.42 K | 477.14
419.55 K | 476.57
419.69 K | 476.57
419.82 K | 476.29
419.96 K | 476.57
420.09 K | 476.57
420.22 K | 476.29
420.52 K | 477.14
420.66 K | 476.57
420.79 K | 477.14
420.92 K | 477.14
421.06 K | 477.14
421.19 K | 477.43
421.33 K | 476.86
421.46 K | 476.86
421.59 K | 476.86
421.73 K | 476.57
421.86 K | 476.57
422.15 K | 477.14
422.28 K | 477.99
422.42 K | 478.56
422.55 K | 478.28
422.69 K | 477.99
422.82 K | 477.71
422.95 K | 477.71
423.09 K | 477.99
423.22 K | 478.56
423.52 K | 477.71
423.65 K | 477.43
423.79 K | 477.71
423.92 K | 477.71
424.05 K | 477.71
424.2 K | 477.99
424.34 K | 478.28
424.47 K | 478.56
424.61 K | 478.85
424.74 K | 478.28
424.87 K | 478.28
425.17 K | 478.85
425.3 K | 478.85
425.43 K | 478.56
425.57 K | 478.28
425.7 K | 478.85
425.84 K | 479.42
425.97 K | 480.84
426.11 K | 481.4
426.24 K | 480.55
426.54 K | 479.7
426.67 K | 479.42
426.81 K | 479.13
426.94 K | 479.42
427.08 K | 479.42
427.21 K | 479.42
427.35 K | 479.13
427.48 K | 479.13
427.62 K | 478.85
427.75 K | 479.13
427.89 K | 479.13
428.18 K | 479.13
428.32 K | 479.7
428.45 K | 479.98
428.59 K | 479.98
428.72 K | 479.98
428.85 K | 479.7
428.99 K | 479.7
429.12 K | 479.42
429.26 K | 479.42
429.56 K | 479.7
429.69 K | 479.7
429.83 K | 480.27
429.96 K | 480.55
430.1 K | 480.55
430.23 K | 480.55
430.37 K | 481.12
430.51 K | 480.84
430.65 K | 480.55
430.78 K | 480.55
430.92 K | 480.55
431.21 K | 480.27
431.35 K | 480.27
431.48 K | 480.55
431.62 K | 481.12
431.75 K | 481.4
431.89 K | 481.69
432.02 K | 481.12
432.16 K | 481.12
432.29 K | 480.84
432.59 K | 481.12
432.72 K | 481.12
432.86 K | 481.12
432.99 K | 481.12
433.13 K | 481.12
433.27 K | 481.12
433.4 K | 481.12
433.54 K | 481.4
433.67 K | 482.83
433.81 K | 484.25
433.95 K | 483.96
434.24 K | 482.54
434.37 K | 482.54
434.51 K | 483.11
434.65 K | 483.11
434.78 K | 482.83
434.92 K | 482.54
435.05 K | 482.54
435.19 K | 482.26
435.32 K | 482.26
435.62 K | 482.83
435.76 K | 483.11
435.9 K | 483.11
436.03 K | 483.39
436.17 K | 483.39
436.3 K | 483.11
436.44 K | 483.68
436.57 K | 483.96
436.71 K | 483.39
436.85 K | 483.68
